Assay results as given in paper PMC13095444, “Discovery of RGS2-FBXO44 interaction inhibitors using a cell-based NanoBit assay” (Molecular Pharmacology, 2025).

T1: RGS2-FBXO44 interaction (Homo sapiens, UniProt P41220)
T1 construct: expressed in transfected cells
T1 sequence (P41220 1-211): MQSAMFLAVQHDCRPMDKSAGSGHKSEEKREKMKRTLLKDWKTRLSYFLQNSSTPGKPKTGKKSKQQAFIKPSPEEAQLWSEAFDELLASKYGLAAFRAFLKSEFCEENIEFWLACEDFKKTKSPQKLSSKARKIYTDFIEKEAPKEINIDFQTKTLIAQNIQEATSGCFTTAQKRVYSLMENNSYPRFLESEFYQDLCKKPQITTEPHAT

T2: RGS2-SmBiT (UniProt P41220 1-211)
T2 construct: Regulator of G protein signaling 2 (RGS2); cloned in-house into pBiT2.3-C[CMV/SmBiT/Blast]; The linker between RGS2 and SmBiT is not described; In the BiBiT construct RGS2-SmBiT and LgBiT-FBXO44 are expressed from one plasmid with a bidirectional CMV promoter; also called C-terminally tagged RGS2; source: HEK-293T, transiently transfected, in live cells; not shown: SmBiT, C-terminal, kept
T2 sequence (looked up): T1 sequence (P41220 1-211)

B1: LgBiT-FBXO44 (natural protein, UniProt Q9H4M3 1-255, looked up)
chain: MAVGNINELPENILLELFTHVPARQLLLNCRLVCSLWRDLIDLVTLWKRKCLREGFITEDWDQPVADWKIFYFLRSLHRNLLHNPCAEEGFEFWSLDVNGGDEWKVEDLSRDQRKEFPNDQVKKYFVTSYYTCLKSQVVDLKAEGYWEELMDTTRPDIEVKDWFAARPDCGSKYQLCVQLLSSAHAPLGTFQPDPATIQQKSDAKWREVSHTFSNYPPGVRYIWFQHGGVDTHYWAGWYGPRVTNSSITIGPPLP
notes: F-box Only Protein 44 (FBXO44); cloned in-house into pBiT1.3-N[CMV/LgBiT/Hygro]; The linker between LgBiT and FBXO44 is not described; also called N-terminally tagged FBXO44; source: HEK-293T, transiently transfected, in live cells; not shown: LgBiT, N-terminal, kept

Tests used:
RGS2-FBXO44 interaction = target: T1, RGS2-FBXO44 interaction; assay: RGS2-FBXO44 NanoBit assay (HEK-293T RGS2-SmBiT/LgBiT-FBXO44 stable clone #6); format: cell-based; settings: for % Inhibition @ 100 μM of RGS2-FBXO44 NanoBit signal: 16–18 hours, fresh powder, luminescence normalized to viability, vs nontreated cells; for IC50: concentrations 500 to 0.01 μM, RLU normalized to viability (RFU), read-out: IC50 (μM), inhibition of RGS2-FBXO44 NanoBit signal
Description: Nano-Glo Live Cell Substrate (LCS) was diluted 1:50 in HBSS to form a 2× stock, and then, 15 μL was added to each well. Plates were shaken on an orbital shaker at 500 rpm for 5 minutes protected from light and then spun down at 1000 rpm for 30 seconds. Plates were incubated at room temperature for 20 minutes, and then, luminescence was detected on a Synergy Neo2 multimode plate reader.
(§1) HEK-293T-RGS2-FBXO44 NanoBit cells were treated for 16–18 hours with compound at 100 μM. This relatively high concentration was chosen because of the challenging nature of our assay (intracellular PPI inhibition). Parental HEK-293T cells were used as a negative control. […] Based on these criteria, 97 compounds were identified as hits from our primary screen (6.1% initial hit rate). To confirm hits, the same assay was repeated in triplicate, which delivered 34 compounds that reached the threshold for inhibition in at least 2 replicates with <25% cell toxicity (Fig. 2C; Supplemental Table 1), thus rendering a final hit rate of 2.1%.
Fresh powders of 20 compounds were purchased and reassayed for their ability to inhibit the RGS2-FBXO44 NanoBit signal, using the same assay paradigm as in the primary screen (Fig. 3; Table 1). […] Nevertheless, all compounds were confirmed to inhibit the RGS2-FBXO44 NanoBit signal at this high concentration.
We next assessed the concentration-dependent effect of our 20 hits. Compounds were assayed at concentrations ranging from 500 to 0.01 μM. NanoBit luminescence (relative luminescence units) was normalized to viability (RFU) and presented as a percentage of untreated cells.

[1] = system: HEK-293T-RGS2-FBXO44 NanoBit cells; assay: Cell viability assay (GF-AFC fluorescence) multiplexed with NanoBit; format: cell-based, Human; settings: for Cell toxicity (in words) / Viability (% of Control): 100 μM; for Viability (% of Control): 16–18 hours
Description: The cells were plated in DMEM without phenol red (Gibco, #21063), 0.1% BSA in a white, tissue culture-treated 384-well plate (Perkin Elmer) at 15,000 cells/well, unless indicated otherwise, and allowed to attach. The plate was centrifuged at 212 × g for 30 seconds to aid in even cell adherence. Compound treatments were initiated 4–5 hours after plating. Following indicated treatment times, media was removed from the plate using BioTek ELx405 plate washer. Additionally, 10 μL of Hank’s Balanced Salt solution (HBSS) with 0.1% BSA was added to each well, followed by 5 μL of glycyl-phenylalanyl-aminofluorocoumarin (GF-AFC; MP Biomedicals) diluted 1:1000 in 100 mM HEPES. Plates were then centrifuged at 212 × g for 30 seconds and then incubated at 37 °C for 30 minutes. Fluorescence was detected on a Synergy Neo2 multimode plate reader (BioTek/Agilent).
Our primary assay using the HEK-293T RGS2-FBXO44 NanoBit cell line was extensively optimized to ensure maximum quality for screening. Coupling a fluorescent cell viability assay with our screen would allow us to rule out cytotoxic compounds while also hopefully reducing outliers from pipetting errors while plating cells. Thus, we multiplexed our NanoBit assay with cell viability using a cell-permeable fluorogenic protease substrate (glycyl-phenylalanyl-aminofluorocoumarin; GF-AFC; [Niles et al, 2007]), which can be combined with a luminescent readout without interfering with the luciferase signal. We previously utilized a similar multiplexing strategy in several screens ([Sjögren et al, 2012]; [Raveh et al, 2014]; [Sjögren et al, 2015]). We assessed and optimized treatment conditions (time, temperature, and reagent volume), cell density, buffer composition, and DMSO tolerance. In addition to the supplied proprietary LCS buffer (Promega), we also tested DMEM, 0.1% BSA, PBS, and HBSS (Supplemental Fig. 1A–C). […] The luminescent signal was stable up to 45 minutes after reagent addition, and we chose to run subsequent assays using 20 minutes of incubation time (Supplemental Fig. 1E). We also observed no effect on either viability or luminescence signal at DMSO concentrations <1% (Data not shown).
as §1

RGS2 protein levels = assay: PathHunter ProLabel assay of RGS2 protein levels in HEK-293T-RGS2-PL cells; format: cell-based, Human; settings: 100 μM compound overnight (16–18 hours)
Description: The PathHunter ProLabel assay was run as described previously ([Sjögren et al, 2012]; [Raveh et al, 2014]; [Sjögren et al, 2015]). Briefly, HEK-293T-RGS2-PL cells were plated at 10,000 cells per well in a white, tissue culture-treated 384-well plate (Perkin Elmer) in DMEM without phenol red (#21063; Gibco) and 0.1% BSA. The cells were allowed to attach for 4 hours, followed by treatment with DMSO, 10 μM MG-132, or 100 μM of compounds. Prior to the detection of RGS2 protein levels by the ProLabel assay, a fluorescent viability assay was performed in the same well, as described above. PathHunter ProLabel reagents (DiscoveRx) were prepared according to the manufacturer’s directions and added to the plate, followed by incubation at room temperature for 1 hour. Luminescence corresponding to RGS2-PL protein levels was detected using a Synergy Neo2 multimode plate reader.
Compounds that inhibit the interaction between RGS2 and FBXO44 would protect RGS2 from proteasomal degradation and result in increased RGS2 protein levels. We therefore next assayed our 20 hits for their ability to increase RGS2 protein levels. We first performed western blot analysis of HEK-293T cells transfected with RGS2-HA and FLAG-FBXO44 and treated overnight (16–18 hours) with 100 μM compound, using proteasome inhibitor MG-132 as a positive control (10 μM). […] Although somewhat disappointing, given the limited sensitivity of western blot, we opted to also test the compounds using an alternate assay paradigm. Specifically, we used the PathHunter ProLabel assay (DiscoveRx), an enzyme complementation assay in which a protein of interest is tagged with a 4 kDa part of β-galactosidase (ProLabel; PL). The chemiluminescent signal in the assay correlates with relative levels of the PL-tagged target protein. We previously developed a stable HEK-293T-RGS2-PL cell line that was used in several high-throughput screening campaigns ([Sjögren et al, 2012]; [Raveh et al, 2014]; [Sjögren et al, 2015]). The PathHunter ProLabel assay offers a more quantitative measurement of protein levels, with a larger dynamic range than a western blot. We treated HEK-293T-RGS2-PL cells overnight (16–18 hours) with 100 μM compound and used 10 μM MG-132 as a positive control.
As a further validation of the action of compound 10, we assessed whether the ability to increase RGS2 protein levels was dependent on FBXO44 using the PathHunter ProLabel assay. HEK-293T-RGS2-PL cells transfected with either nontargeting (NT) or FBXO44-targeting siRNA were treated overnight (16–18 hours) with vehicle or compound 10 (100 μM). […] Thus, compound 10 increases RGS2 protein levels through a mechanism that is dependent on FBXO44.

RGS2-SmBiT = target: T2, RGS2-SmBiT; assay: split reporter (BiFC, NanoBiT); NanoBiT luminescence in live, transiently transfected HEK-293T cells; every combination of RGS2 and FBXO44 NanoBiT constructs; 15,000 cells/well, 2 hours incubation; settings: partners not purified

| fold luminescence signal against the opposite tagging (RGS2-LgBiT with SmBiT-FBXO44) (RGS2-SmBiT) | Molecule | % Inhibition @ 100 μM of RGS2-FBXO44 NanoBit signal (RGS2-FBXO44 interaction) | IC50 (RGS2-FBXO44 interaction) | Cell toxicity (in words) [1] | Viability (% of Control) ([1]; fresh powder) | RGS2 protein levels (PathHunter ProLabel) (RGS2 protein levels) | Cell toxicity at 100 μM ([1]; fresh powder) |
| --- | --- | --- | --- | --- | --- | --- | --- |
|  | Cc1cccc(C(=O)N2CCN(c3nc(C)cc(N4CCCCC4)n3)CC2)c1 [Compound 1] | 48.9∗∗∗∗ % | 58 µM | significant toxicity | 45.8∗∗∗∗ % of Control | significantly increased RGS2 protein levels |  |
|  | Cc1nc(N2CCN(C(=O)c3cccc(N(C)C)c3)CC2)cc(C(F)(F)F)n1 [Compound 2] | 68.0∗∗∗∗ % | 72.2 µM |  | 101.9 % of Control |  |  |
|  | Cc1cc(N2CCCC2)nc(N2CCN(C(=O)c3ccccc3C)CC2)n1 [Compound 3] | 40.6∗∗∗∗ % | 78.9 µM |  | 54.1∗∗∗∗ % of Control |  |  |
|  | CCOc1ccc(C(=O)NCc2ccnc(N3CCCCC3)n2)cc1 [Compound 4] | 47.2∗∗∗∗ % | 38.2 µM |  | 89.5 % of Control |  |  |
|  | CCOc1ccc(C(=O)Nc2ccc3c(c2)N(C(=O)C(C)C)CCC3)cc1OCC [Compound 5] | 44.5∗∗∗∗ % | 151 µM |  | 120.5 % of Control |  |  |
|  | CCOc1ccc(S(=O)(=O)N(Cc2cccn2C)C2CC2)cc1F [Compound 6] | 36.8∗∗∗∗ % | 25.6 µM |  | 116.6 % of Control |  |  |
|  | Cc1cc(C)c(C)c(S(=O)(=O)N2CCCC2)c1C [Compound 7] | 56.5∗∗∗∗ % | 42.1 µM |  | 91.7 % of Control |  |  |
|  | CCOc1ccc(S(=O)(=O)N2CCCCCC2)cc1C [Compound 8] | 86.1∗∗∗∗ % | 9.2 µM |  | 80.6∗∗∗∗ % of Control |  |  |
|  | O=S(=O)(C1CC1)N1CCCCC(c2ccc(Cl)cc2)C1 (stereo not drawn) [Compound 9] | 74.5∗∗∗∗ % | 9.7 µM |  | 103.6 % of Control |  |  |
|  | CCOc1cc(C)c(C)cc1S(=O)(=O)N1CCN(c2ccccc2)CC1 [Compound 11] | 49.6∗∗∗∗ % | 29 µM |  | 139.6 % of Control |  |  |
|  | O=C(NCC1(O)CCOc2ccccc21)C1(c2ccc(Cl)cc2)CCCC1 (stereo not drawn) [Compound 12] | 32.6∗∗∗∗ % | 5.8 µM |  | 116.6 % of Control |  |  |
|  | O=C(N(CCc1ccccc1)Cc1ccccn1)C12CC3CC(CC(C3)C1)C2 [Compound 13] |  |  | almost complete cell toxicity | 7.5∗∗∗∗ % of Control |  | < 90% |
|  | COC1(CNC(=O)CCc2ccccc2)C2CC3CC(C2)CC1C3 (stereo not drawn) [Compound 14] | 70.7∗∗∗∗ % | 67.4 µM |  | 93.9 % of Control |  |  |
|  | Cc1cc(C)c(C)c(Cn2c(CCNC(=O)CCC(C)O)nc3ccccc32)c1C (stereo not drawn) [Compound 15] | 50.2∗∗∗∗ % | 20.3 µM |  | 68.5∗∗∗∗ % of Control |  |  |
|  | CCCCNC(=O)c1nnn(-c2ccccc2)c1C(C)C [Compound 16] | 75.8∗∗∗∗ % | 54.8 µM |  | 93.7 % of Control |  |  |
|  | CSc1ccccc1C(=O)NCc1cc(C2CC2)n(C2CCCC2)n1 [Compound 17] | 69.0∗∗∗∗ % | 88.1 µM |  | 69.2∗∗∗∗ % of Control |  |  |
|  | O=C(Cc1ccccc1Cl)N(CCc1cccs1)C1CCOCC1 [Compound 18] | 51.2∗∗∗∗ % | 122 µM |  | 81.5∗∗∗∗ % of Control |  |  |
|  | CCCOc1cc(S(=O)(=O)NCC2CCCO2)ccc1Cl (stereo not drawn) [Compound 19] | 74.8∗∗∗∗ % | 39.6 µM |  | 85.8∗∗ % of Control |  |  |
|  | CCc1nc(C)cn1S(=O)(=O)c1cc(OC)c(C)cc1C [Compound 20] | 67.3∗∗∗∗ % | 4.4 µM |  | 44.4∗∗∗∗ % of Control |  |  |
| 3.5 fold | B1 |  |  |  |  |  |  |
